Laboratory results: patent publication US20250161396A1, “COMPOSITION AND METHOD FOR IMPROVING LIPID METABOLISM FUNCTION OF SUBJECT” (NANJING NUTRABUILDING BIO-TECH CO., LTD., priority 2022, published 2025)

How the values were obtained:
Format in all cases: in vivo
high fat diet (HFD) mice [1] = test: Serum triglyceride (TG) level by commercial kit; settings: after 16 weeks of gavage
Method: (§1) Mice were divided into five groups: one group was normal diet mice as ND control group; one group of high fat diet (HFD) mice were gavaged with no-active-ingredients water as HFD control group, one group of HFD mice were treated with BAIBA (65 mg/kg/day) alone by gavage as HFD+BAIBA group, one group of HFD mice were treated with GP (5.2 mg/kg/day) alone by gavage as HFD+GP group, and one group of HFD mice were treated with BAIBA (65 mg/kg/day) and GP (5.2 mg/kg/day) combination by gavage as HFD+BAIBA+GP group, all for 16 weeks.
(§2) After the mice were killed, the serum was extracted by centrifugation, and the levels of triglyceride (TG) and total cholesterol (TC) in mice were measured by using commercial kits according to the instructions and recorded.

high fat diet (HFD) mice [2] = test: Body weight of high fat diet mice after 16 weeks of treatment
Method: as §1
At the beginning of treatment (baseline), the body weights of the five groups of mice were the same.

high fat diet (HFD) mice [3] = test: Oral glucose tolerance test (OGTT); settings: 8th week
Method: as §1
(§3) At the 8th week after the initial experiment, oral glucose tolerance test (OGTT) and insulin tolerance test (ITT) were performed on mice. OGTT is as follows: Blood from tail tip of mice was taken to detect blood glucose, and glucose (1.5 g/kg) was given by gavage after overnight fasting, and blood glucose was monitored with a blood glucose meter before administration and 15, 30, 60, 90 and 120 minutes after administration. ITT is as follows: Insulin (0.75 U/kg) was given by intraperitoneal injection on an empty stomach, and blood glucose was monitored with a blood glucose meter before administration and 15, 30, 60, 90 and 120 minutes after administration.

high fat diet (HFD) mice [4] = test: Serum total cholesterol (TC) level by commercial kit; settings: after 16 weeks of gavage
Method: as §1, §2

high fat diet (HFD) mice [5] = test: Body fat mass of high fat diet mice after 16 weeks of treatment
Method: as §1
Adipose tissue was collected, fixed with 10% formalin, embedded in paraffin, and dehydrated by graded alcohol. Tissue sections with a thickness of 5 μm were prepared, stained with hematoxylin-eosin (H&E) and observed under an optical microscope with a magnification of 200 times. The body fat mass of each group of mice was measured and recorded.

high fat diet (HFD) mice [6] = test: Serum leptin level by ELISA kit; settings: after 16 weeks of gavage
Method: as §1
The serum of mice was centrifuged, and the level of leptin in serum was determined by ELISA kit. According to the concentration value and light absorption value of leptin, the logarithmic value was taken as a standard curve, and the concentration value of leptin was converted according to the standard curve.

high fat diet (HFD) mice [7] = test: Insulin tolerance test (ITT); settings: 8th week
Method: as §1, §3
As shown in Table 2 and FIG. 3B, after 15 minutes, the blood glucose level of mice in HFD control group decreased greatly, and the blood glucose level before and after the end of insulin half-life was higher than that in other groups. […] It can be seen that the combination of BAIBA and GP can reduce the insulin resistance of mice, that is, improve the insulin sensitivity.

[8] = gavage, BAIBA 65 mg/kg/day and/or GP 5.2 mg/kg/day, after 16 weeks
[9] = versus HFD control, after 16 weeks of gavage

CC(CN)C(=O)O (stereo not drawn) [BAIBA, β-aminoisobutyric acid]
triglyceride (TG) level (high fat diet (HFD) mice [1]): 98.45 mg/dL | body weight (high fat diet (HFD) mice [2]; [8]): 47.8 g | body weight reduced by (high fat diet (HFD) mice [2]; [9]): 2.84% | blood glucose level in OGTT, 15 min (high fat diet (HFD) mice [3]; 15 min after glucose 1.5 g/kg by gavage): 281.91 mg/dL | blood glucose level in OGTT, 30 min (high fat diet (HFD) mice [3]; 30 min after glucose 1.5 g/kg by gavage): 352.74 mg/dL | blood glucose level in OGTT, 60 min (high fat diet (HFD) mice [3]; 60 min after glucose 1.5 g/kg by gavage): 411.98 mg/dL | blood glucose level in OGTT, 90 min (high fat diet (HFD) mice [3]; 90 min after glucose 1.5 g/kg by gavage): 253.21 mg/dL | blood glucose level in OGTT, 120 min (high fat diet (HFD) mice [3]; 120 min after glucose 1.5 g/kg by gavage): 192.99 mg/dL | blood glucose level in OGTT compared with other groups, in words (high fat diet (HFD) mice [3]; across time points): lower than that in HFD control group at each time point | blood glucose level in OGTT, pre-dose (high fat diet (HFD) mice [3]; overnight fasting, before glucose 1.5 g/kg by gavage): 199.85 mg/dL | total cholesterol (TC) level (high fat diet (HFD) mice [4]): 220.65 mg/dL | body fat mass (high fat diet (HFD) mice [5]; [8]): 5.38 g | body fat mass reduced by (high fat diet (HFD) mice [5]; [9]): 13.78% | leptin level (high fat diet (HFD) mice [6]): 278.12 pg/mL | blood glucose level in ITT, 15 min (high fat diet (HFD) mice [7]; 15 min after insulin 0.75 U/kg intraperitoneal): 105.23 mg/dL | blood glucose level in ITT, 30 min (high fat diet (HFD) mice [7]; 30 min after insulin 0.75 U/kg intraperitoneal): 101.45 mg/dL | blood glucose level in ITT, 60 min (high fat diet (HFD) mice [7]; 60 min after insulin 0.75 U/kg intraperitoneal): 90.45 mg/dL | blood glucose level in ITT, 90 min (high fat diet (HFD) mice [7]; 90 min after insulin 0.75 U/kg intraperitoneal): 95.24 mg/dL | blood glucose level in ITT, 120 min (high fat diet (HFD) mice [7]; 120 min after insulin 0.75 U/kg intraperitoneal): 92.56 mg/dL | blood glucose level in ITT compared with other groups, in words (high fat diet (HFD) mice [7]; across time points): higher than that in HFD control group at each time point | blood glucose level in ITT, pre-dose (high fat diet (HFD) mice [7]; empty stomach, before insulin 0.75 U/kg intraperitoneal): 140.4 mg/dL
